{"source": "patent US9758524B2", "about": "“4-imidazopyridazin-1-yl-benzamides as Btk inhibitors” (Merck Sharp & Dohme B.V., priority 2011, dated 2017)", "key": {"[1]": {"target": "Lyn enzyme (Homo sapiens (Human), UniProt P07948)", "sequence (P07948 whole entry)": "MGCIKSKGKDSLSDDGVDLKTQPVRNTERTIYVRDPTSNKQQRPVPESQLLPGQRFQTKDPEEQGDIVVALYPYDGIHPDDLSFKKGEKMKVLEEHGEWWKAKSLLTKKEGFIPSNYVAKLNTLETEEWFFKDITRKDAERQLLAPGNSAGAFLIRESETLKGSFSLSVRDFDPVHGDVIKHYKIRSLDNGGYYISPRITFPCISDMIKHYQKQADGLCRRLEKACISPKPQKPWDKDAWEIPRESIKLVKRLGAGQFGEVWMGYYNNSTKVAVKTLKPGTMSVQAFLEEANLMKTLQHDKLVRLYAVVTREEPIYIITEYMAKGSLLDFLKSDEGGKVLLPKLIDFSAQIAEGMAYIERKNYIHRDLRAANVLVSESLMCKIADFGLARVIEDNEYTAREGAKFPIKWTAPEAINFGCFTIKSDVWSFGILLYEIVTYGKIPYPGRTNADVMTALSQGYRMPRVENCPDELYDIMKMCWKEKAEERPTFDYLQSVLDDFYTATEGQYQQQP", "assay": "Lyn enzyme activity (IMAP fluorescence polarization assay)", "conditions": "read-out: EC50 Lyn activity values, 60 min pre-incubation, 2 μM ATP, bin bound in μM"}, "[2]": {"target": "FynT enzyme (Homo sapiens (Human), UniProt P06241)", "sequence (P06241 other isoform, or with tags, fused parts or gaps)": "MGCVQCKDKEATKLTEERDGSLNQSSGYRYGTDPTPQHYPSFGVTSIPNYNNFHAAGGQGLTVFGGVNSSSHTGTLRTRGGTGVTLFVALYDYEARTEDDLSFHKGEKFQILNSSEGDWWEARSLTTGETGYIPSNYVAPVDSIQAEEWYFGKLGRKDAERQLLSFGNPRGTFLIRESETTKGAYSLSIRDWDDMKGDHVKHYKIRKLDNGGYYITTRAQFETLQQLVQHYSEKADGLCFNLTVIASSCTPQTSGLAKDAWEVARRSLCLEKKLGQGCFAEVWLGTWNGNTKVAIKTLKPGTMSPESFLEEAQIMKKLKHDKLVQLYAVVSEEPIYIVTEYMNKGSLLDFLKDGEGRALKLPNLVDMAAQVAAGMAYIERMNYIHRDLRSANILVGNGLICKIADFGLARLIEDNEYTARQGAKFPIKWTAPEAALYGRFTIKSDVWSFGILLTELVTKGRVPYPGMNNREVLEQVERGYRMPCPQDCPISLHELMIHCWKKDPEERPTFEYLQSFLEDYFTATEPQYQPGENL", "assay": "FynT enzyme activity (IMAP fluorescence polarization assay)", "type": "biochemical", "conditions": "60 min pre-incubation, 0.2 μM ATP", "summary_of_the_method": "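Human FynT pre-incubated with compounds 60 min at room temperature, then reacted 2 h at room temperature with fluorescein-labelled p34cdc2 peptide (100 nM final). Stopped with IMAP binding solution; fluorescence polarization read after 60 min. Activity as % of ±ATP control difference; EC50 by curve fitting.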"}, "[3]": {"target": "Lck enzyme (Homo sapiens (Human), UniProt P06239)", "sequence (P06239 whole entry)": "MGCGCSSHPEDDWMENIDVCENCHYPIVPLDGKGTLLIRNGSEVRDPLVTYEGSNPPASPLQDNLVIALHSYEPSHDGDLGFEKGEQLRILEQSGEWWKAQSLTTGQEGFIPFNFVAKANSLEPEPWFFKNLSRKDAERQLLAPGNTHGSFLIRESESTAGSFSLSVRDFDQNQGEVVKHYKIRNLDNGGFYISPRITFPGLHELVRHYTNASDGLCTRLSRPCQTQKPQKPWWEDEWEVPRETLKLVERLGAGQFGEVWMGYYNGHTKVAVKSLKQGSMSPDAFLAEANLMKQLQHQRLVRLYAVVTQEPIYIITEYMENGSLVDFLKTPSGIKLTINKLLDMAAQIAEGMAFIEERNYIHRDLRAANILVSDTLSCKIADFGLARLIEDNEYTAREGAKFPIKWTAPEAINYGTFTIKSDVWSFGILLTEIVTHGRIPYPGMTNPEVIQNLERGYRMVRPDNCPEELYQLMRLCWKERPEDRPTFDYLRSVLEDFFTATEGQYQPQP", "assay": "Lck enzyme activity (IMAP fluorescence polarization assay)", "conditions": "read-out: EC50 Lck activity values; IMAP, 60 min pre-incubation, 6 μM ATP; bin bound in μM"}, "[4]": {"target": "Src enzyme (Homo sapiens (Human), UniProt P12931)", "sequence (P12931 whole entry, looked up)": "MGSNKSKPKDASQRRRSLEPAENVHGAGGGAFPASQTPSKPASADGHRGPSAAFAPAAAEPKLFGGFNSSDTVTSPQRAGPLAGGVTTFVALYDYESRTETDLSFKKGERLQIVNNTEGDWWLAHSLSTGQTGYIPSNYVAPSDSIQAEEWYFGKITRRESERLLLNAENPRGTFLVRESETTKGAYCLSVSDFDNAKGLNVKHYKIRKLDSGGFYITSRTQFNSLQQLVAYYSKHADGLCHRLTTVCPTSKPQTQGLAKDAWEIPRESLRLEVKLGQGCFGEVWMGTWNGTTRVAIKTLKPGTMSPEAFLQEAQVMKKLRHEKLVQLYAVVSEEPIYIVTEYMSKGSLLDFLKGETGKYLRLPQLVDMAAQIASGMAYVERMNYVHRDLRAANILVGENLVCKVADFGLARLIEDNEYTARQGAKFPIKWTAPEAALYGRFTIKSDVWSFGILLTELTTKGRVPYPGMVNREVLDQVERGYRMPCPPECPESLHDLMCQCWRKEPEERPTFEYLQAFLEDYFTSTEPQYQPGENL", "assay": "Src enzyme activity (IMAP fluorescence polarization assay)", "conditions": "read-out: EC50 Src activity values; IMAP, 60 min pre-incubation, 4 μM ATP"}, "[5]": {"target": "Btk enzyme (His-Btk) (Homo sapiens (Human), UniProt Q06187)", "sequence (Q06187 whole entry)": "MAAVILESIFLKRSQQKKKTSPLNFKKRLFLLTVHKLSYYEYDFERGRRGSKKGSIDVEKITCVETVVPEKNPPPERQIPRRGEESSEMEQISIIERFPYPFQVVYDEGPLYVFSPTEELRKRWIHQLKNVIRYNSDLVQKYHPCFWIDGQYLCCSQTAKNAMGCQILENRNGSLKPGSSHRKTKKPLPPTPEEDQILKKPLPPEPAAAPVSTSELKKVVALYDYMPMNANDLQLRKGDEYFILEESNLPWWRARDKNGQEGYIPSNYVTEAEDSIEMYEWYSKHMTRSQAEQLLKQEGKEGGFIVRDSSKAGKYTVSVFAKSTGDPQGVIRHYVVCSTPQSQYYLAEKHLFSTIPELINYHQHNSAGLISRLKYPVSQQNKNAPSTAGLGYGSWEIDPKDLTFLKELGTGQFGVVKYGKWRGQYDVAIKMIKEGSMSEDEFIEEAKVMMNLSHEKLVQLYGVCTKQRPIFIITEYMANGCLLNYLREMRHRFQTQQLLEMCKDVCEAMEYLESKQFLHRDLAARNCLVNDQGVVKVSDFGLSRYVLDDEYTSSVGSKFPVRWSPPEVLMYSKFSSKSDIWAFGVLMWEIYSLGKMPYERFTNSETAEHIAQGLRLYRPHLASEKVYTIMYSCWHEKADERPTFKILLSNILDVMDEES", "assay": "Btk enzyme activity (IMAP fluorescence polarization assay)"}, "[6]": {"conditions": "read-out: EC50 Btk activity values, IMAP, 60 min pre-incubation, 5 μM ATP, bin bound in nM"}, "[7]": {"conditions": "IMAP, 60 min pre-incubation, 5 μM ATP, bin bound in nM"}}, "note": "Where two headings read alike, the source gives them in different places."}
{"smiles": "C=CC(=O)N1CCCC[C@H]1c1nc(-c2ccc(C(=O)Nc3cc(C(F)(F)F)ccn3)cc2)c2c(N)nccn12", "note": "[Example 109, (S)-4-(3-(1-acryloylpiperidin-2-yl)-8-aminoimidazo[1,5-a]pyrazin-1-yl)-N-(4-(trifluoromethyl)pyridin-2-yl)benzamide]", "values": [{"measurement": "EC50", "setting": "[1]", "result": "≥ 1", "unit": "µM"}, {"measurement": "EC50", "setting": "[2]", "result": "≥ 1000", "unit": "nM"}, {"measurement": "EC50", "setting": "[3]", "result": "≥ 1", "unit": "µM"}, {"measurement": "EC50", "setting": "[4]", "result": "≥ 1000", "unit": "nM"}, {"measurement": "EC50", "setting": "[5]; [6]", "result": "< 10", "unit": "nM"}]}
{"smiles": "CC#CC(=O)N1CCCC[C@H]1c1nc(-c2ccc(C(=O)Nc3cc(CCC)ccn3)c(OC)c2)c2c(N)nccn12", "note": "[Example 110, (S)-4-(8-amino-3-(1-but-2-ynoylpiperidin-2-yl)imidazo[1,5-a]pyrazin-1-yl)-2-methoxy-N-(4-propylpyridin-2-yl)benzamide]", "values": [{"measurement": "EC50", "setting": "[1]", "result": "≥ 1", "unit": "µM"}, {"measurement": "EC50", "setting": "[2]", "result": "≥ 1000", "unit": "nM"}, {"measurement": "EC50", "setting": "[3]", "result": "≥ 1", "unit": "µM"}, {"measurement": "EC50", "setting": "[4]", "result": "≥ 1000", "unit": "nM"}, {"measurement": "EC50", "setting": "[5]; [6]", "result": "< 10", "unit": "nM"}]}
{"smiles": "CC#CC(=O)NCc1nc(-c2ccc(C(=O)Nc3ccccn3)cc2)c2c(N)nccn12", "note": "[Example 112, 4-(8-amino-3-(but-2-ynamidomethyl)imidazo[1,5-a]pyrazin-1-yl)-N-(pyridin-2-yl)benzamide]", "values": [{"measurement": "EC50", "setting": "[1]", "result": "≥ 1", "unit": "µM"}, {"measurement": "EC50", "setting": "[2]", "result": "≥ 1000", "unit": "nM"}, {"measurement": "EC50", "setting": "[3]", "result": "≥ 1", "unit": "µM"}, {"measurement": "EC50", "setting": "[4]", "result": "≥ 1000", "unit": "nM"}, {"measurement": "EC50", "setting": "[5]", "result": "10 to 100", "unit": "nM"}, {"measurement": "EC50 Btk activity values", "setting": "[5]; [7]", "result": "<100", "unit": "nM"}]}
{"smiles": "CC#CC(=O)N(C)[C@@H](C)c1nc(-c2ccc(C(=O)Nc3cc(CCC)ccn3)cc2)c2c(N)nccn12", "note": "[Example 113, (S)-4-(8-amino-3-(1-(N-methylbut-2-ynamido)ethyl)imidazo[1,5-a]pyrazin-1-yl)-N-(4-propylpyridin-2-yl)benzamide]", "values": [{"measurement": "EC50", "setting": "[1]", "result": "≥ 1", "unit": "µM"}, {"measurement": "EC50", "setting": "[2]", "result": "≥ 1000", "unit": "nM"}, {"measurement": "EC50", "setting": "[3]", "result": "≥ 1", "unit": "µM"}, {"measurement": "EC50", "setting": "[4]", "result": "≥ 1000", "unit": "nM"}, {"measurement": "EC50", "setting": "[5]", "result": "10 to 100", "unit": "nM"}, {"measurement": "EC50 Btk activity values", "setting": "[5]; [7]", "result": "<100", "unit": "nM"}]}
{"smiles": "CCCc1ccnc(NC(=O)c2ccc(-c3nc([C@@H]4CCCCN4C(=O)/C=C/COC)n4ccnc(N)c34)cc2F)c1", "note": "[Example 114, (S,E)-4-(8-amino-3-(1-(4-methoxybut-2-enoyl)piperidin-2-yl)imidazo[1,5-a]pyrazin-1-yl)-2-fluoro-N-(4-propylpyridin-2-yl)benzamide]", "values": [{"measurement": "EC50", "setting": "[1]", "result": "≥ 1", "unit": "µM"}, {"measurement": "EC50", "setting": "[2]", "result": "≥ 1000", "unit": "nM"}, {"measurement": "EC50", "setting": "[3]", "result": "≥ 1", "unit": "µM"}, {"measurement": "EC50", "setting": "[4]", "result": "≥ 1000", "unit": "nM"}, {"measurement": "EC50", "setting": "[5]", "result": "10 to 100", "unit": "nM"}, {"measurement": "EC50 Btk activity values", "setting": "[5]; [7]", "result": "<100", "unit": "nM"}]}
{"smiles": "Nc1nccn2c([C@@H]3CCCCN3C(=O)c3ccnc(Cl)n3)nc(-c3ccc(C(=O)Nc4cc(C(F)(F)F)ccn4)cc3)c12", "note": "[Example 115, (S)-4-(8-amino-3-(1-(2-chloropyrimidine-4-carbonyl)piperidin-2-yl)imidazo[1,5-a]pyrazin-1-yl)-N-(4-(trifluoromethyl)pyridin-2-yl)benzamide]", "values": [{"measurement": "EC50", "setting": "[1]", "result": "≥ 1", "unit": "µM"}, {"measurement": "EC50", "setting": "[2]", "result": "≥ 1000", "unit": "nM"}, {"measurement": "EC50", "setting": "[3]", "result": "≥ 1", "unit": "µM"}, {"measurement": "EC50", "setting": "[4]", "result": "≥ 1000", "unit": "nM"}, {"measurement": "EC50", "setting": "[5]; [6]", "result": "< 10", "unit": "nM"}]}
{"smiles": "CC#CC(=O)N1CCCC[C@H]1c1nc(-c2ccc(C(=O)Nc3ncc(CC)s3)cc2)c2c(N)nccn12", "note": "[Example 116, (S)-4-(8-amino-3-(1-but-2-ynoylpiperidin-2-yl)imidazo[1,5-a]pyrazin-1-yl)-N-(5-ethylthiazol-2-yl)benzamide]", "values": [{"measurement": "EC50", "setting": "[1]", "result": "≥ 1", "unit": "µM"}, {"measurement": "EC50", "setting": "[2]", "result": "≥ 1000", "unit": "nM"}, {"measurement": "EC50", "setting": "[3]", "result": "≥ 1", "unit": "µM"}, {"measurement": "EC50", "setting": "[4]", "result": "≥ 1000", "unit": "nM"}, {"measurement": "EC50", "setting": "[5]; [6]", "result": "< 10", "unit": "nM"}]}
{"smiles": "C=CC(=O)N1CCCC[C@H]1c1nc(-c2ccc(C(=O)Nc3ncc(CC)s3)cc2)c2c(N)nccn12", "note": "[Example 117, (S)-4-(3-(1-acryloylpiperidin-2-yl)-8-aminoimidazo[1,5-a]pyrazin-1-yl)-N-(5-ethylthiazol-2-yl)benzamide]", "values": [{"measurement": "EC50", "setting": "[1]", "result": "≥ 1", "unit": "µM"}, {"measurement": "EC50", "setting": "[2]", "result": "≥ 1000", "unit": "nM"}, {"measurement": "EC50", "setting": "[3]", "result": "≥ 1", "unit": "µM"}, {"measurement": "EC50", "setting": "[4]", "result": "≥ 1000", "unit": "nM"}, {"measurement": "EC50", "setting": "[5]; [6]", "result": "< 10", "unit": "nM"}]}
{"smiles": "CCc1cnc(NC(=O)c2ccc(-c3nc([C@@H]4CCCCN4C(=O)c4ccnc(Cl)n4)n4ccnc(N)c34)cc2)s1", "note": "[Example 118, (S)-4-(8-amino-3-(1-(2-chloropyrimidine-4-carbonyl)piperidin-2-yl)imidazo[1,5-a]pyrazin-1-yl)-N-(5-ethylthiazol-2-yl)benzamide]", "values": [{"measurement": "EC50", "setting": "[1]", "result": "≥ 1", "unit": "µM"}, {"measurement": "EC50", "setting": "[2]", "result": "≥ 1000", "unit": "nM"}, {"measurement": "EC50", "setting": "[3]", "result": "≥ 1", "unit": "µM"}, {"measurement": "EC50", "setting": "[4]", "result": "≥ 1000", "unit": "nM"}, {"measurement": "EC50", "setting": "[5]; [6]", "result": "< 10", "unit": "nM"}]}
